Assay results taken from US20260042753A1 (Merck Patent GmbH, priority 2019, published 2026).
pIC50: −log10 of the molar value. Read-outs that look alike come from different tables or passages of the source.

Assays:
[1] = target: mutant cKIT (560-576 and V654A) in GIST430/654 cell line (Homo sapiens (Human), UniProt P10721, DEL560-576/V654A); assay: Cellular testing of cKIT mutant inhibitors: phospho-Y307-cKIT Luminex assay in GIST430/654 cells; assay type: cell-based; conditions: read-out: GIST 430/654 IC50
How it was run: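 GIST430/654 cells carrying constitutively active cKIT (Δ560-576/V654A) were grown with 100 nM imatinib, then treated with serially diluted compound for 45 min. Lysates were captured on anti-total-cKIT Luminex beads overnight at 4 °C and probed for phospho-Y307-cKIT. IC50 was fitted from percent of 0.3% DMSO control.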

c-Kit(V654A) = c-Kit(V654A) (Homo sapiens, UniProt P10721, V654A); assay: c-Kit(V654A) assay; assay type: biochemical
How it was run: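 Radiometric filter-binding read-out: after 3% phosphoric acid stop, peptide-incorporated 33P on filtermat scintillation-counted. Enzyme: human c-Kit V654A, residues 544–end, N-terminal GST fusion.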

[2] = Table 1, cKIT autophosphorylation, compounds 45 min
[3] = Table 2, corresponding triazole derivatives

Chain of mutant cKIT (560-576 and V654A) in GIST430/654 cell line (P10721 other isoform, or with tags, fused parts or gaps V654A/del 1-25/del 560-576 limits assumed): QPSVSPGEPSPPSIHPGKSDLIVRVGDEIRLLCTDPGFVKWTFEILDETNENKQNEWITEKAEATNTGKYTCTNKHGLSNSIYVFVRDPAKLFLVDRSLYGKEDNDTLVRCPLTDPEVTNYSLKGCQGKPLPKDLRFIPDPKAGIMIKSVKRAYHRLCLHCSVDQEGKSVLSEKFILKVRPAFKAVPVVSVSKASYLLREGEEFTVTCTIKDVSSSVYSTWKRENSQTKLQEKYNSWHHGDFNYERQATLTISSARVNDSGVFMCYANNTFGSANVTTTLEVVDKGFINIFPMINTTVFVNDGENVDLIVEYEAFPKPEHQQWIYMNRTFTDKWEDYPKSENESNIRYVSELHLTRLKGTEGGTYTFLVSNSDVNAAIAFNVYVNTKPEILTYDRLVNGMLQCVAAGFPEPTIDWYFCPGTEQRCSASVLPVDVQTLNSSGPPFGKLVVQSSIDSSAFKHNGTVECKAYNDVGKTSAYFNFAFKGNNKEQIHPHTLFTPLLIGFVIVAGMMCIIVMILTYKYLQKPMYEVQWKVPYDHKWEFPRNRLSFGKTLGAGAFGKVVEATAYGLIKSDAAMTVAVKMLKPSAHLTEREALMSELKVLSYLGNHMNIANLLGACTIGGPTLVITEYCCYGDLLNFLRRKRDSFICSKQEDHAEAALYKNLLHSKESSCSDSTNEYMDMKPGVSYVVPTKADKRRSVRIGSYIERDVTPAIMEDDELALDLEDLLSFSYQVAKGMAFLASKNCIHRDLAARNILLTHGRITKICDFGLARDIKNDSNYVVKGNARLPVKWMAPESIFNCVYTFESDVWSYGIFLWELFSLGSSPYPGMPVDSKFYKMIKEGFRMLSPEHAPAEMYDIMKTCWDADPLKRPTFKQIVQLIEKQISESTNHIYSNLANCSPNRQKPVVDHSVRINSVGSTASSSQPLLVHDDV

SMILES	pIC50 [1, 2]	pIC50 (c-Kit(V654A); Table 1, 200 μM ATP)	pIC50 [1, 3]	pIC50 (c-Kit(V654A); [3])
COCCOc1cc2[nH]nc(-c3cc(-c4ccc(C(=O)N5CCC[C@H]5CS(C)(=O)=O)cc4)no3)c2cc1F [A7, 5-fluoro-3-(3-{4-[(2S)-2-(methanesulfonylmethyl)pyrrolidine-1-carbonyl]phenyl}-1,2-oxazol-5-yl)-6-(2-methoxyethoxy)-1H-indazole]	7.40	9.12	–	–
COCCOc1cc2[nH]nc(-c3cc(-c4ccc(C)nc4)no3)c2cc1F [A22, 5-fluoro-6-(2-methoxyethoxy)-3-[3-(6-methylpyridin-3-yl)-1,2-oxazol-5-yl]-1H-indazole]	5.66	7.49	–	–
COCCOc1cc2[nH]nc(-c3cc(-c4ccc(C(=O)N5CC[C@H]5CO)cc4)no3)c2cc1F [A95, [(2S)-1-(4-{5-[5-fluoro-6-(2-methoxyethoxy)-1H-indazol-3-yl]-1,2-oxazol-3-yl}benzoyl)azetidin-2-yl]methanol]	7.43	9.04	–	–
COCCOc1cc2[nH]nc(-c3cc(-c4ccc(C(=O)N5CC(N(C)C)C5)cc4)no3)c2cc1F [A76, 1-(4-{5-[5-fluoro-6-(2-methoxyethoxy)-1H-indazol-3-yl]-1,2-oxazol-3-yl}benzoyl)-N,N-dimethylazetidin-3-amine]	7.10	8.70	–	–
COCCOc1cc2[nH]nc(-c3cc(-c4ccc(N5CCN(C)CC5)nc4)no3)c2cc1F [A39, 5-fluoro-6-(2-methoxyethoxy)-3-{3-[6-(4-methylpiperazin-1-yl)pyridin-3-yl]-1,2-oxazol-5-yl}-1H-indazole]	6.82	8.77	–	–
COCCOc1cc2[nH]nc(-c3cc(-c4ccc(C(=O)N5CCC[C@@H]5CS(C)(=O)=O)cc4)no3)c2cc1F [A55, 5-fluoro-3-(3-{4-[(2R)-2-(methanesulfonylmethyl)pyrrolidine-1-carbonyl]phenyl}-1,2-oxazol-5-yl)-6-(2-methoxyethoxy)-1H-indazole]	7.19	9.14	–	–
CC(C)(O)C1CCCN1C(=O)c1ccc(-c2cc(-c3n[nH]c4cc(C(F)(F)F)ccc34)on2)cc1 (stereo not drawn) [A1, 2-[1-(4-{5-[6-(trifluoromethyl)-1H-indazol-3-yl]-1,2-oxazol-3-yl}benzoyl)pyrrolidin-2-yl]propan-2-ol]	6.46	7.82	–	–
COc1cc2[nH]nc(-c3cc(-c4ccc(C(=O)N5CCN(C6COC6)CC5)cc4)no3)c2cc1F [A219, {4-[5-(5-Fluoro-6-methoxy-1H-indazol-3-yl)-isoxazol-3-yl]-phenyl}-(4-oxetan-3-yl-piperazin-1-yl)-methanone]	6.55	8.10	–	–
COCCOc1cc2[nH]nc(-c3cc(-c4ccc(C(=O)N5CCN(C6COC6)C[C@@H]5C)cc4)no3)c2cc1F [A191, 5-fluoro-6-(2-methoxyethoxy)-3-(3-{4-[(2S)-2-methyl-4-(oxetan-3-yl)piperazine-1-carbonyl]phenyl}-1,2-oxazol-5-yl)-1H-indazole]	7.24	8.74	–	–
COCCOc1cc2[nH]nc(-c3cn(-c4ccc(C(=O)N5CC(c6ccncc6)C5)cc4)nn3)c2cc1F [reference compound]	–	–	6.80	8.59
COCCOc1cc2[nH]nc(-c3cc(-c4ccc(N5CCOCC5)nc4)no3)c2cc1F [A141, 5-fluoro-6-(2-methoxyethoxy)-3-{3-[6-(morpholin-4-yl)pyridin-3-yl]-1,2-oxazol-5-yl}-1H-indazole]	6.66	8.11	–	–
COCCOc1cc2[nH]nc(-c3cc(-c4ccc(C(=O)N5C[C@H]6C[C@@H]5CO6)cc4)no3)c2cc1F [A163, 5-fluoro-6-(2-methoxyethoxy)-3-(3-{4-[(1R,4R)-2-oxa-5-azabicyclo[2.2.1]heptane-5-carbonyl]phenyl}-1,2-oxazol-5-yl)-1H-indazole]	7.42	9.27	–	–
COCCOc1cc2[nH]nc(-c3cc(-c4ccc(C(=O)N5CCOC[C@@H]5C)cc4)no3)c2cc1F [A115, 5-fluoro-6-(2-methoxyethoxy)-3-(3-{4-[(3S)-3-methylmorpholine-4-carbonyl]phenyl}-1,2-oxazol-5-yl)-1H-indazole]	7.35	9.08	–	–
COCCOc1cc2[nH]nc(-c3cc(-c4ccc(C(=O)N5CC[C@H]5CS(C)(=O)=O)cc4)no3)c2cc1F [A152, 5-fluoro-3-(3-{4-[(2S)-2-(methanesulfonylmethyl)azetidine-1-carbonyl]phenyl}-1,2-oxazol-5-yl)-6-(2-methoxyethoxy)-1H-indazole]	7.19	9.06	–	–
COCCOc1cc2[nH]nc(-c3cc(-c4ccc(C(=O)N5Cc6cnn(C)c6C5)cc4)no3)c2cc1F [A213, 5-fluoro-6-(2-methoxyethoxy)-3-[3-(4-{1-methyl-1H,4H,5H,6H-pyrrolo[3,4-c]pyrazole-5-carbonyl}phenyl)-1,2-oxazol-5-yl]-1H-indazole]	7.32	9.31	–	–
COCCOc1cc2[nH]nc(-c3cc(-c4ccc(OCCN5CCNCC5)cc4)no3)c2cc1F [A134, 5-fluoro-6-(2-methoxyethoxy)-3-(3-{4-[2-(piperazin-1-yl)ethoxy]phenyl}-1,2-oxazol-5-yl)-1H-indazole]	6.82	8.82	–	–
COCCOc1cc2[nH]nc(-c3cn(-c4ccc(C(=O)N5CC(N6CCOCC6)C5)c(F)c4)nn3)c2cc1F [reference compound]	–	–	6.15	7.70
COCCOc1cc2[nH]nc(-c3cc(-c4ccc(C5CCNCC5(C)C)cc4)no3)c2cc1F (stereo not drawn) [A230, 3-{3-[4-(3,3-dimethyl-piperidin-4-yl)-phenyl]-isoxazol-5-yl}-5-fluoro-6-(2-methoxy-ethoxy)-1H-indazole]	6.96	9.40	–	–
COCCOc1cc2[nH]nc(-c3cc(-c4ccc(OCCN5CCOCC5)cc4)no3)c2cc1F [A40, 5-fluoro-6-(2-methoxyethoxy)-3-(3-{4-[2-(morpholin-4-yl)ethoxy]phenyl}-1,2-oxazol-5-yl)-1H-indazole]	6.85	8.57	–	–
COCCOc1cc2[nH]nc(-c3cc(-c4ccc(C(=O)N5CC[C@@H]5C(C)(C)O)cc4)on3)c2cc1F [A147, (4-{3-[5-fluoro-6-(2-methoxy-ethoxy)-1H-indazol-3-yl]-isoxazol-5-yl}-phenyl)-[(R)-2-(1-hydroxy-1-methyl-ethyl)-azetidin-1-yl]-methanone]	7.17	8.66	–	–
COCCOc1cc2[nH]nc(-c3cc(-c4ccc(C(=O)N5Cc6cn[nH]c6C5)cc4)no3)c2cc1F [A208, 5-fluoro-6-(2-methoxyethoxy)-3-[3-(4-{1H,4H,5H,6H-pyrrolo[3,4-c]pyrazole-5-carbonyl}phenyl)-1,2-oxazol-5-yl]-1H-indazole]	7.12	9.13	–	–
COCCOc1cc2[nH]nc(-c3cc(-c4ccc(C(=O)N5CC(OC)C5)cc4)no3)c2cc1F [A33, 5-fluoro-3-{3-[4-(3-methoxyazetidine-1-carbonyl)phenyl]-1,2-oxazol-5-yl}-6-(2-methoxyethoxy)-1H-indazole]	7.21	8.89	–	–
COCCOc1cc2[nH]nc(-c3cc(-c4ccc(C(=O)N5CC[C@@H]5CO)cc4)no3)c2cc1F [A97, [(2R)-1-(4-{5-[5-fluoro-6-(2-methoxyethoxy)-1H-indazol-3-yl]-1,2-oxazol-3-yl}benzoyl)azetidin-2-yl]methanol]	7.39	9.01	–	–
COCCOc1cc2[nH]nc(-c3cc(-c4ccc(-n5cncn5)cc4)no3)c2cc1F [A21, 5-fluoro-6-(2-methoxyethoxy)-3-{3-[4-(1H-1,2,4-triazol-1-yl)phenyl]-1,2-oxazol-5-yl}-1H-indazole]	6.24	7.92	–	–
COCCOc1cc2[nH]nc(-c3cc(-c4ccc(C(=O)N5CC(N6CCO[C@@H](C)C6)C5)cc4)no3)c2cc1F [A210, 5-fluoro-6-(2-methoxyethoxy)-3-[3-(4-{3-[(2S)-2-methylmorpholin-4-yl]azetidine-1-carbonyl}phenyl)-1,2-oxazol-5-yl]-1H-indazole]	7.52	9.10	–	–
COCCOc1cc2[nH]nc(-c3cc(-c4ccc(C(=O)N5CCN(C)CC5)cc4)no3)c2cc1F [A36, 5-fluoro-6-(2-methoxyethoxy)-3-{3-[4-(4-methylpiperazine-1-carbonyl)phenyl]-1,2-oxazol-5-yl}-1H-indazole]	6.92	8.92	–	–
COCCOc1cc2[nH]nc(-c3cc(-c4ccc(C(=O)N5CC(N6CCN(C)CC6)C5)cc4)no3)c2cc1F [A102, 5-fluoro-6-(2-methoxyethoxy)-3-(3-{4-[3-(4-methylpiperazin-1-yl)azetidine-1-carbonyl]phenyl}-1,2-oxazol-5-yl)-1H-indazole]	6.80	8.89	–	–
COCCOc1cc2[nH]nc(-c3cc(-c4ccc(C(=O)N5CC[C@@H]6COC[C@@H]6C5)cc4)no3)c2cc1F (relative stereo) [A215, 3-(3-{4-[(cis)-octahydrofuro[3,4-c]pyridine-5-carbonyl]phenyl}-1,2-oxazol-5-yl)-5-fluoro-6-(2-methoxyethoxy)-1H-indazole]	7.46	9.12	–	–
COCCOc1cc2[nH]nc(-c3cc(-c4ccc(C(=O)N5CCC6(CCOC6)C5)cc4)no3)c2cc1F (stereo not drawn) [A157, 7-(4-{5-[5-fluoro-6-(2-methoxyethoxy)-1H-indazol-3-yl]-1,2-oxazol-3-yl}benzoyl)-2-oxa-7-azaspiro[4.4]nonane]	7.64	9.36	–	–
COCCOc1cc2[nH]nc(-c3cn(-c4ccc(C(=O)N5CC(F)C5)cc4)nn3)c2cc1F [reference compound]	–	–	6.24	7.96
